Reference: ChEMBL document CHEMBL6083210, “Exploring apoptotic induction of malabaricone A in triple-negative breast cancer cells: an acylphenol phyto-entity isolated from the fruit rind of Myristica malabarica Lam” (RSC Med Chem, 2024)
The source made the active and inactive calls. The rule behind the calls is not given here.

Assays:
[1] = test system: MDA-MB-231; test: Induction of DNA fragmentation in human MDA-MB-231 cells assessed as appearance of ladder-like pattern at 6 to 10 uM; type: functional, cell-based; conditions: dose 6-10 µM
[2] = test system: MDA-MB-231; test: Upregulation of Bad protein level in human MDA-MB-231 cells at 8 uM measured after 24 hrs; type: functional, cell-based
[3] = test system: MDA-MB-231; test: Upregulation of Bax protein level in human MDA-MB-231 cells at 8 uM measured after 24 hrs; type: functional, cell-based
[4] = test system: MDA-MB-231; test: Upregulation of Bid protein level in human MDA-MB-231 cells at 8 uM measured after 24 hrs; type: functional, cell-based
[5] = test system: MDA-MB-231; test: Upregulation of caspase 3 protein level in human MDA-MB-231 cells at 8 uM measured after 24 hrs; type: functional, cell-based
[6] = test system: MDA-MB-231; test: Upregulation of caspase 8 protein level in human MDA-MB-231 cells at 8 uM measured after 24 hrs; type: functional, cell-based
[7] = test system: MDA-MB-231; test: Downregulation of cIAP-2 protein level in human MDA-MB-231 cells at 8 uM measured after 24 hrs; type: functional, cell-based
[8] = test system: MDA-MB-231; test: Upregulation of Fas protein level in human MDA-MB-231 cells at 8 uM measured after 24 hrs; type: functional, cell-based
[9] = test system: MDA-MB-231; test: Upregulation of FasL protein level in human MDA-MB-231 cells at 8 uM measured after 24 hrs; type: functional, cell-based
[10] = test system: MDA-MB-231; test: Upregulation of HTRA protein level in human MDA-MB-231 cells at 8 uM measured after 24 hrs; type: functional, cell-based
[11] = test system: MDA-MB-231; test: Upregulation of p53 protein level in human MDA-MB-231 cells at 8 uM measured after 24 hrs; type: functional, cell-based
[12] = test system: MDA-MB-231; test: Downregulation of livin protein level in human MDA-MB-231 cells at 8 uM measured after 24 hrs; type: functional, cell-based
[13] = test system: MDA-MB-231; test: Upregulation of Smac protein level in human MDA-MB-231 cells at 8 uM measured after 24 hrs; type: functional, cell-based
[14] = test system: MDA-MB-231; test: Upregulation of TNF-R1 protein level in human MDA-MB-231 cells at 8 uM measured after 24 hrs; type: functional, cell-based
[15] = test system: MDA-MB-231; test: Upregulation of TNF-alpha protein level in human MDA-MB-231 cells at 8 uM measured after 24 hrs; type: functional, cell-based
[16] = test system: MDA-MB-231; test: Upregulation of TNF-beta protein level in human MDA-MB-231 cells at 8 uM measured after 24 hrs; type: functional, cell-based
[17] = test system: MDA-MB-231; test: Downregulation of XIAP protein level in human MDA-MB-231 cells at 8 uM measured after 24 hrs; type: functional, cell-based
[18] = test system: MDA-MB-231; test: Induction of cell cycle arrest in human MDA-MB-231 cells assessed as accumulation of cells at Sub G0 phase at 6 uM incubated for 24 hrs by PI staining based flow cytometry analysis (reference value: 5.3%); type: functional
[19] = test system: MDA-MB-231; test: Induction of cell cycle arrest in human MDA-MB-231 cells assessed as accumulation of cells at Sub G0 phase at 8 uM incubated for 24 hrs by PI staining based flow cytometry analysis (reference value: 5.3%); type: functional
[20] = test system: MDA-MB-231; test: Induction of cell cycle arrest in human MDA-MB-231 cells assessed as accumulation of cells at G1 phase at 6 uM incubated for 24 hrs by PI staining based flow cytometry analysis (reference value: 74.2%); type: functional
[21] = test system: MDA-MB-231; test: Induction of cell cycle arrest in human MDA-MB-231 cells assessed as accumulation of cells at G1 phase at 8 uM incubated for 24 hrs by PI staining based flow cytometry analysis (reference value: 74.2%); type: functional
[22] = test system: MDA-MB-231; test: Induction of cell cycle arrest in human MDA-MB-231 cells assessed as accumulation of cells at S phase at 6 uM incubated for 24 hrs by PI staining based flow cytometry analysis (reference value: 12.0%); type: functional
[23] = test system: MDA-MB-231; test: Induction of cell cycle arrest in human MDA-MB-231 cells assessed as accumulation of cells at S phase at 8 uM incubated for 24 hrs by PI staining based flow cytometry analysis (reference value: 12.0%); type: functional
[24] = test system: MDA-MB-231; test: Induction of cell cycle arrest in human MDA-MB-231 cells assessed as accumulation of cells at G2 phase at 6 uM incubated for 24 hrs by PI staining based flow cytometry analysis (reference value: 7.9%); type: functional
[25] = test system: MDA-MB-231; test: Induction of cell cycle arrest in human MDA-MB-231 cells assessed as accumulation of cells at G2 phase at 8 uM incubated for 24 hrs by PI staining based flow cytometry analysis (reference value: 7.9%); type: functional
[26] = test system: MDA-MB-231; test: Downregulation of cyclin A2 level in human MDA-MB-231 cells at 6 to 10 uM by Western blot analysis; type: functional, cell-based; conditions: dose 6-10 µM
[27] = test system: MDA-MB-231; test: Downregulation of cyclin B1 level in human MDA-MB-231 cells at 6 to 10 uM by Western blot analysis; type: functional, cell-based; conditions: dose 6-10 µM
[28] = test system: MDA-MB-231; test: Downregulation of Cdk2 level in human MDA-MB-231 cells at 6 to 10 uM by Western blot analysis; type: functional, cell-based; conditions: dose 6-10 µM
[29] = test system: MDA-MB-231; test: Downregulation of Cdc25c level in human MDA-MB-231 cells at 6 to 10 uM by Western blot analysis; type: functional, cell-based; conditions: dose 6-10 µM

In the case of `O=C(CCCCCCCCc1ccccc1)c1c(O)cccc1O` [MALABARICONE A], the Activity [1] is reported as “Active”, the Activity [2] is reported as “Active” and the Activity [3] is reported as “Active”. For the same compound, the Activity [4] was “Active”, the Activity [5] was “Active” and the Activity [6] was “Active”. The Activity [7] was “Active”, the Activity [8] was “Active” and the Activity [9] was “Active”. The Activity [10] was “Active”, the Activity [11] was “Active” and the Activity [12] was “Active”. For the same compound, the Activity [13] was “Active”, the Activity [14] was “Active” and the Activity [15] was “Active”. The Activity [16] was “Active”, the Activity [17] was “Active” and the Activity [18] was 48.7%. The Activity [19] was 59.7%, the Activity [20] was 36.8% and the Activity [21] was 27.5%. It also gave an Activity [22] of 9.7%, an Activity [23] of 9.1% and an Activity [24] of 3.9%. The Activity [25] was 2.9%, the Activity [26] was “Active” and the Activity [27] was “Active”. The Activity [28] was “Active” and the Activity [29] was “Active”.
